This is an account of results in ChEMBL document CHEMBL1143204, “Syntheses and in vitro evaluation of arylsulfone-based MMP inhibitors with heterocycle-derived zinc-binding groups (ZBGs)” (Bioorg Med Chem Lett, 2008).

Structures are written as SMILES. Some results are limits rather than exact numbers.

Assay [1] deals with 72 kDa type IV collagenase (Homo sapiens, UniProt P08253). Put plainly: Inhibition of MMP2.
In assay [2] the target is Matrix metalloproteinase-9 (Homo sapiens, UniProt P14780). Description: Inhibition of MMP9.
Sequence of Matrix metalloproteinase-9 (P14780 whole entry): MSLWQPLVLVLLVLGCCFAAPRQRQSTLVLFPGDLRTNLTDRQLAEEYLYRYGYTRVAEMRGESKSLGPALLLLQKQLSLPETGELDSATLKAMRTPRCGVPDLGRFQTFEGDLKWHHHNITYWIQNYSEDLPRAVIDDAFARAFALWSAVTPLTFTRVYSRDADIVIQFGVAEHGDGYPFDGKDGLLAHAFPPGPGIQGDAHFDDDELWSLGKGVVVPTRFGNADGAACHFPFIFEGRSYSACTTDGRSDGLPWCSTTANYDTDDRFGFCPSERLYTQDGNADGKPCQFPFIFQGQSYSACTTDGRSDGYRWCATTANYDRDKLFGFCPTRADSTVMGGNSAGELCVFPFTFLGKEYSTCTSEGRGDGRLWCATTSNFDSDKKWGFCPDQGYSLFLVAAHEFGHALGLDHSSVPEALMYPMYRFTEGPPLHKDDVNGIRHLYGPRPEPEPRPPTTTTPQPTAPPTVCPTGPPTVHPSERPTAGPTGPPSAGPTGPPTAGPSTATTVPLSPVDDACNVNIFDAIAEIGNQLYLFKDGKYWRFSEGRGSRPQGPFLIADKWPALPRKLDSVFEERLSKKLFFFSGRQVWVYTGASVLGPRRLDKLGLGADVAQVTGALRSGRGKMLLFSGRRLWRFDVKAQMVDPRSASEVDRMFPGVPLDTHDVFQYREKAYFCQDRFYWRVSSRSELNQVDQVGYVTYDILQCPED
The target in assay [3] is T1, Interstitial collagenase (Homo sapiens, UniProt P03956).
T1 sequence (P03956 whole entry): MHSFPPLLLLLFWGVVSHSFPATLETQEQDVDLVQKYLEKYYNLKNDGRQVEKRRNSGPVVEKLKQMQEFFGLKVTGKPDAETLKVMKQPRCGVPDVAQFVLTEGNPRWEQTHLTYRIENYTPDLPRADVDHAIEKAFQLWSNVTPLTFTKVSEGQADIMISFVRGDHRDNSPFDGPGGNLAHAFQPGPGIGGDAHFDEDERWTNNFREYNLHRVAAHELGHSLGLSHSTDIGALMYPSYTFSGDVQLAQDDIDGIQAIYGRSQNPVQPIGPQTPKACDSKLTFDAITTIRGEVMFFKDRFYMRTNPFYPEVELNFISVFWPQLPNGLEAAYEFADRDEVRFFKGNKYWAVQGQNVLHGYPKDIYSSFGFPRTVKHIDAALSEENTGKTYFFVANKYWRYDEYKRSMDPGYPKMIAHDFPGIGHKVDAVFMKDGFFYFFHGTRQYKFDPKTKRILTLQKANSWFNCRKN
Put plainly: Inhibition of MMP1.

Assay [4] addresses Stromelysin-1 (Homo sapiens, UniProt P08254). Put plainly: Inhibition of MMP3.
Assay [5] has as its target Collagenase 3 (Homo sapiens, UniProt P45452). Description: Inhibition of MMP13.

Sequence of 72 kDa type IV collagenase (P08253 whole entry): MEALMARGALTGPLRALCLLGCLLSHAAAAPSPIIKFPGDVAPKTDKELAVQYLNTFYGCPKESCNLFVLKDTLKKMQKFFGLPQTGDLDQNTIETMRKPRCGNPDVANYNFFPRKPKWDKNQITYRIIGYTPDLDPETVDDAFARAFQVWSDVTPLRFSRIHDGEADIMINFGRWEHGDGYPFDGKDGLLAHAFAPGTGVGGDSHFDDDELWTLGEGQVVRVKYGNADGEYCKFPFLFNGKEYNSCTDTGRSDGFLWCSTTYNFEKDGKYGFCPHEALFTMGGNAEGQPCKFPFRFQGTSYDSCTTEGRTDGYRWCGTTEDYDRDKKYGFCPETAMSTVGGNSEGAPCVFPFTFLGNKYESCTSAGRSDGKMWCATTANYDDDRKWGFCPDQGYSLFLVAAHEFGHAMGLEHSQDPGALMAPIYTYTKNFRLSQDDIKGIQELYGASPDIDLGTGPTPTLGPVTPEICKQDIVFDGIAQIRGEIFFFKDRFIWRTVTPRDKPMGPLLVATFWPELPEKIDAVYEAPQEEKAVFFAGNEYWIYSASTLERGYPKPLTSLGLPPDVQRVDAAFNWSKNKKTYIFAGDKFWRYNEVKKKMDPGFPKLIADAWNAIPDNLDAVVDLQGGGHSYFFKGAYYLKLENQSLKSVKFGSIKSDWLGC
Sequence of Stromelysin-1 (P08254 whole entry): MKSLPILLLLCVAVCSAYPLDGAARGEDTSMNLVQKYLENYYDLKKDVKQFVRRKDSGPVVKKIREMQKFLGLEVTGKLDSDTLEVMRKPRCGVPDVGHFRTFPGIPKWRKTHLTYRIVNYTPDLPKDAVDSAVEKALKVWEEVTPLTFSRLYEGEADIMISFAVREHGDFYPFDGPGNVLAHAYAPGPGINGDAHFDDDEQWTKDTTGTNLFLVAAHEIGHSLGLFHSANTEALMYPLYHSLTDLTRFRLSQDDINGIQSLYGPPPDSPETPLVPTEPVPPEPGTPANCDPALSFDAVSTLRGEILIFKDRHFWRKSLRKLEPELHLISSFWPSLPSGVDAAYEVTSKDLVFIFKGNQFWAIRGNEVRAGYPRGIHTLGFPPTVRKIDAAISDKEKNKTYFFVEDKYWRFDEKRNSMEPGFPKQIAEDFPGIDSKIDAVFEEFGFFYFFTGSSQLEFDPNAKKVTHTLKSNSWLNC

By IC50 is commonly meant the concentration needed to halve the response being measured. On to `O=C1C(S(=O)(=O)c2ccc(Oc3ccc(OC(F)(F)F)cc3)cc2)CCCCN1O` (stereo unspecified), for which the IC50 in assay [1] was found to be 59.4 nM; in assay [2], 21.5 nM.
On the same counts, the results for `COc1ccc(Oc2ccc(S(=O)(=O)Cn3cccc(O)c3=O)s2)cc1` are 72 nM and 13.9 nM.
On the same counts, the results for `O=c1c(O)cccn1CS(=O)(=O)c1ccc(Oc2ccc(Cl)cc2)cc1` are 10.6 nM and 16.4 nM.
For the molecule `O=C1[C@H](CS(=O)(=O)c2ccc(Oc3ccccc3)cc2)NCCCN1O`, the IC50 in assay [3] was above 1000 nM; in assay [1], 36.8 nM; in assay [4], 964 nM; in assay [2], 21.1 nM; in assay [5] it was 11 nM.
On to `COc1ccc(-c2ccc(S(=O)(=O)C3CCCCN(O)C3=O)cc2)cc1` (stereo unspecified), for which the IC50 in assay [1] and in assay [2] was above 1000 nM each time.
`O=c1c(O)cccn1CS(=O)(=O)c1ccc(Oc2ccc(OC(F)(F)F)cc2)cc1`: the IC50 is above 1000 nM in assay [3]; 12.6 nM in assay [1]; 203 nM in assay [4]; 4 nM in assay [2]; 7.3 nM in assay [5].
On to `COc1ccc(Oc2ccc(S(=O)(=O)Cc3cccn(O)c3=O)cc2)cc1`, for which the IC50 in assay [3] was above 1000 nM; in assay [4], 308 nM; in assay [5] it was 13.4 nM.
Turning to `Cc1ccc(S(=O)(=O)Cn2cccc(O)c2=O)cc1`, in assay [2], inhibition was half-maximal at 809 nM (IC50).
Consider `COc1ccc(-c2ccc(S(=O)(=O)Cn3cccc(O)c3=O)cc2)cc1`, for which the IC50 in assay [1] and in assay [2] was above 1000 nM each time.
For `COc1ccc(Oc2ccc(S(=O)(=O)C3CCCCCN(O)C3=O)cc2)cc1` (stereo unspecified), the IC50 in assay [1] and in assay [2] was above 1000 nM in each case.
